Data on two compounds can be found in patent US6171575A, “Method of radioisotopic assessment of the integrity and function of the nose-brain barrier” (priority 1998, dated 2001).

The structures appear in SMILES notation. “Also recorded” adds a separate entry of the source. Read-outs that look alike come from different tables or passages of the source.

The conditions of series [1]: cited from earlier work.
The conditions of series [2]: renogrammatic analysis; imaging and dynamic studies of cerebrospinal fluid flow; cited from earlier work.
The nature of series [3]: Radioisotopic penetration across the nose-brain barrier (NBB) after intranasal spray, gamma camera ROI.
Excerpt: (§1) A. The radiopharmaceutical was sprayed deep into the nose through the nostril as the examinee laid on the scintigraphic table with the head placed in vertical position. B. The resultant radioactivity residing on the olfactory mucosa. C. The region of interest (ROI) placed just beneath the nose-brain barrier on the (cathode Ray Tube) so as to record the penetrating radioactivity. D. Pharyngeal radioactivity escaped from the olfactory pit.
(§2) The mixture was sprayed into the depth of the nose. […] In order to protect the nasal mucosa, vinyl tubing was attached to the end of the nozzle of a sprayer. As the head of an examinee was positioned vertically, so as to allow the droplets to fall onto the olfactory mucosa, the examiner sprayed the mixture deep into one of the nostrils; and
(§3) (2) Assessing the radioisotopic penetration across the NBB The radioisotopic spray side of the head of an examinee was placed against the detector collimator of a gamma camera for 10 minutes. Radioisotopic penetration was defined as the amount of radioactivity recorded in the regions of interest (ROIs) placed over the intracranial space adjoing the cribrijon lamine. The change of the recorded radioactivity in this ROI was analyzed along with that in a remote control brain area.
(§4) Test were performed to determine the penetration potential of radio-pharmaceuticals of ^99m Tc-HMPAO and ^99m Tc-DTPA.
For series [4] the following is noted: in vivo.
Excerpt: as §1, §2, §3, §4
For series [5] the following is noted: agent that circulates in the blood; cited from earlier work.

As to `O=C([O-])CN(CCN(CC(=O)[O-])CC(=O)[O-])CCN(CC(=O)[O-])CC(=O)[O-].[99Tc+4]` [^99m Tc-DTPA, 99mTc-diethylenetriaminepenta-acetic acid], in series [1], the water solubility entry is recorded as “water-soluble”. Besides, the extracellular spreading entry in series [2] is on record as “spreads extracellularly”. In addition, the “radioisotopic penetration across the NBB (radioactivity in juxta-cribriform brain ROI)” value is on record as “the change was statistically insignificant; also recorded: increased but without any statistical significance” in series [3] (healthy person, intranasal spray, 10 minutes gamma camera) and “significant increase in radioactivity in the juxta-cribriform lamional brain; also recorded: increased significantly” in series [3] (person with anosmia, left nostril, 148 MBq per 0.2 ml puff (example preparation)). Besides, the “passage of the nose-brain barrier” value in series [3] (overall conclusion, human beings, olfactory pathology and/or healthy control) is “shown to pass the nose-brain barrier”. Also, in series [3] (person with anosmia, left nostril), the “time after which radioactivity in the juxta-cribriform brain increased significantly” value turned out to be 5 min.

For the compound `C/C(=N\[O-])[C@@H](C)[N-]CC(C)(C)C[N-][C@H](C)/C(C)=N/O.[O]=[99Tc+3]` (racemic) [^99m Tc-HMPAO], the “passage of the nose-brain barrier” value in series [4] was “shown not to pass the nose-brain barrier”. The “passage through the blood-brain barrier” value in series [5] was “passes through the blood-brain barrier”.
